Data published in patent publication US11964953B2, “Substituted aminothiazoles as DGKzeta inhibitors for immune activation” (Bayer Aktiengesellschaft, priority 2020, dated 2024).
pIC50: −log10 of the molar value.

biological target: human DGKζ (Homo sapiens (Human), UniProt Q13574); assay: Human DGKζ kinase activity inhibition assay (ADP-Glo); type: biochemical; details: in vitro human DGKζ kinase activity inhibition assay; read-out: IC50
Method in brief: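 Enzyme was C-terminally FLAG-tagged full-length recombinant human DGKζ from baculovirus-infected insect cells. Substrate preparation used octyl-β-D-glucopyranoside in 50 mM MOPS pH 7.4 with sonication; ADP generated was quantified by ADP-Glo luminescence as activity measure.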

Sequence of human DGKζ (Q13574 other isoform, or with tags, fused parts or gaps): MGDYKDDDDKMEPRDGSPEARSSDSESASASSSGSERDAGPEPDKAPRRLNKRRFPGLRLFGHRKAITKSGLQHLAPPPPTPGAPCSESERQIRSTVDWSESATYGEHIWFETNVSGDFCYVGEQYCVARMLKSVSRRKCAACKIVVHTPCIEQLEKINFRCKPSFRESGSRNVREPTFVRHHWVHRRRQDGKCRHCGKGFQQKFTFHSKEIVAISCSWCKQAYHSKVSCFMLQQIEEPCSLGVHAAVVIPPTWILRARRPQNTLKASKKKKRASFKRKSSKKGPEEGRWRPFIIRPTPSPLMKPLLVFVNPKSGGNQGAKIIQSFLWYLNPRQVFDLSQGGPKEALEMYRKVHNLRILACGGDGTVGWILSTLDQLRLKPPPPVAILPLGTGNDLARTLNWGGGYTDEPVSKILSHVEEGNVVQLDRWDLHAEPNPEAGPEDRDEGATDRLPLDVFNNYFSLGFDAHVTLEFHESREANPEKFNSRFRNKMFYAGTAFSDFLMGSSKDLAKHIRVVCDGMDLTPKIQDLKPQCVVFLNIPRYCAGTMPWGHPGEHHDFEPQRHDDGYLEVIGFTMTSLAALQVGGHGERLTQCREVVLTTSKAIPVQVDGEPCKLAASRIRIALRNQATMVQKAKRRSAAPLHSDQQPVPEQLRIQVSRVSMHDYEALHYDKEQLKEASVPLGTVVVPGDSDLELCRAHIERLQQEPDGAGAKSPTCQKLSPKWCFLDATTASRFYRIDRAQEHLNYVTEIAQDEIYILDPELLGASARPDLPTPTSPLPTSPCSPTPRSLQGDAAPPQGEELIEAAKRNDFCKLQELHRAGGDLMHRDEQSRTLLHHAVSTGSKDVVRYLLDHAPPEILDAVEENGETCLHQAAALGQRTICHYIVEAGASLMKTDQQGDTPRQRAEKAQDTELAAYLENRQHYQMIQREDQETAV

**Q.** `CC(C(N)=O)N(c1ccc(Cl)cc1)c1nc(N)c(C(=O)c2ccc(F)cc2)s1` (racemic) [Example 37, rac-2-(N-[4-amino-5-(4-fluorobenzoyl)thiazol-2-yl]-4-chloro-anillno)propanamide] was tested. Which pIC50 did it give?
**A.** 7.70

**Q.** With `CC(C(N)=O)N(c1cnn(C)c1)c1nc(N)c(C(=O)c2ccccc2)s1` (single isomer, unassigned) [Example 78.1, 2-[(4-amino-5-benzoyl-thiazol-2-yl)-(1-methylpyrazol-4-yl)amino]propanamide] as the molecule, how does the pIC50 read?
**A.** < 4.70

**Q.** How did the pIC50 turn out when `CC(C(N)=O)N(c1ccc(F)cc1)c1nc(N)c(C(=O)c2ccc(O)cc2)s1` (single isomer, unassigned) [Example 286, 2-(N-[4-amino-5-(4-hydroxybenzoyl)thiazol-2-yl]-4-fluoro-anilino)propanamide (single enantiomer)] was run?
**A.** 7.51

**Q.** `CC(C(N)=O)N(c1ccc(F)c(F)c1)c1nc(N)c(C(=O)c2ccncc2)s1` (single isomer, unassigned) [Example 50.1, 2-(N-[4-amino-5-(pyridine-4-carbonyl)thiazol-2-yl]-3,4-difluoro-anilino)propanamide] was tested. Which pIC50 did it give?
**A.** 6.90

**Q.** `CC(C(N)=O)N(c1ccc(F)cc1)c1nc(N)c(C(=O)c2ccc(C(F)(F)F)cc2)s1` (racemic) [Example 42, rac-2-(N-[4-amino-5-[4-(trifluoromethyl)benzoyl]thiazol-2-yl]-4-fluoro-anilino)propanamide] was tested. Which pIC50 did it give?
**A.** 7.95

**Q.** `Cc1nc(N(c2ccc(F)c(F)c2)C(C)C(N)=O)sc1C(=O)c1ccc(OC(F)F)cc1` (racemic) [Example 55, rac-2-(N-[5-[4-(difluoromethoxy)benzoyl]-4-methyl-thiazol-2-yl]-3,4-difluoro-anilino)propanamide] was tested. Which pIC50 did it give?
**A.** 8.01

**Q.** How did the pIC50 turn out when `COc1cc(C(=O)c2sc(N(c3ccc(F)cc3)C(C)C(N)=O)nc2N)ccn1` (racemic) [Example 190, rac-2-(N-[4-amino-5-(2-methoxypyridine-4-carbonyl)thiazol-2-yl]-4-fluoro-anilino)propanamide] was run?
**A.** 6.26

**Q.** `CC(C(N)=O)N(c1nc(N)c(C(=O)c2ccc(OC(F)F)cc2)s1)c1ccc(Cl)cc1F` (racemic) [Example 46, rac-2-(N-[4-amino-5-[4-(difluoromethoxy)benzoyl]thiazol-2-yl]-4-chloro-2-fluoro-anilino)propanamide] was tested. Which pIC50 did it give?
**A.** 8.15

**Q.** `CC(C(N)=O)N(c1ccc(F)cc1)c1nc(N)c(C(=O)c2ccc(N3CCC(C)(C)CC3)nc2)s1` (racemic) [Example 279, rac-2-(N-[4-amino-5-[6-(4,4-dimethyl-1-piperidyl)pyridine-3-carbonyl]thiazol-2-yl]-4-fluoro-anilino)propanamide] was tested. Which pIC50 did it give?
**A.** 7.32

**Q.** How did the pIC50 turn out when `CC(C(N)=O)N(c1ccc(F)cc1)c1nc(N)c(C(=O)c2ccc(C(F)(F)F)nc2)s1` (single isomer, unassigned) [Example 29.2, 2-(N-[4-amino-5-[6-(trifluoromethyl)pyridine-3-carbonyl]thiazol-2-yl]-4-fluoro-anilino)propanamide] was run?
**A.** 7.34

**Q.** With `COc1ccc(C(=O)c2sc(N(c3ccc(OC(F)F)nc3)C(C)C(N)=O)nc2N)cc1` (racemic) [Example 252, rac-2-[[4-amino-5-(4-methoxybenzoyl)thiazol-2-yl]-[6-(difluoromethoxy)-3-pyridyl]amino]propanamide] as the molecule, how does the pIC50 read?
**A.** 6.97

**Q.** How did the pIC50 turn out when `COc1ccc(C(=O)c2sc(N(c3ccc(F)c(Cl)c3)C(C)C(N)=O)nc2N)cc1` (single isomer, unassigned) [Example 161.2, 2-(N-[4-amino-5-(4-methoxybenzoyl)thiazol-2-yl]-3-chloro-4-fluoro-anilino)propanamide] was run?
**A.** 5.59

**Q.** `CC(C(N)=O)N(c1ccc(F)cc1)c1nc(N)c(C(=O)c2ccc(OCC(=O)Nc3ccc(C#N)cc3)cc2)s1` (racemic) [Example 92, rac-2-(N-[4-amino-5-[4-[2-(4-cyanoanilino)-2-oxo-ethoxy]benzoyl]thiazol-2-yl]-4-fluoro-anilino)propanamide] was tested. Which pIC50 did it give?
**A.** 7.78

**Q.** With `CC(C)NC(=O)COc1ccc(C(=O)c2sc(N(c3ccc(F)cc3)C(C)C(N)=O)nc2N)cc1` (racemic) [Example 82, rac-2-(N-[4-amino-5-[4-[2-(isopropylamino)-2-oxo-ethoxy]benzoyl]thiazol-2-yl]-4-fluoro-anilino)propanamide] as the molecule, how does the pIC50 read?
**A.** 7.05

**Q.** How did the pIC50 turn out when `Cc1ccc(C(=O)c2sc(N(c3ccc(F)cc3)C(C)C(N)=O)nc2N)cc1` (single isomer, unassigned) [Example 63.1, 2-(N-[4-amino-5-(4-methylbenzoyl)thiazol-2-yl]-4-fluoro-anilino)propanamide] was run?
**A.** 5.29

**Q.** With `COc1ccc(N(c2nc(N)c(C(=O)c3ccccc3)s2)C(C)C(N)=O)cc1Cl` (racemic) [Example 17, rac-2-(N-(4-amino-5-benzoyl-thiazol-2-yl)-3-chloro-4-methoxy-anilino)propanamide] as the molecule, how does the pIC50 read?
**A.** 6.58

**Q.** With `CC(C(N)=O)N(c1ccc(F)cc1)c1nc(N)c(C(=O)c2ccccc2)s1` (racemic) [Example 61, rac-2-(N-(4-amino-5-benzoyl-thiazol-2-yl)-4-fluoro-anilino)propanamide] as the molecule, how does the pIC50 read?
**A.** 7.03

**Q.** How did the pIC50 turn out when `CC(C(N)=O)N(c1ccc(F)cc1)c1nc(N)c(C(=O)c2ccccc2F)s1` (racemic) [Example 8, rac-2-(N-[4-amino-5-(2-fluorobenzoyl)thiazol-2-yl]-4-fluoro-anilino)propanamide] was run?
**A.** 6.21

**Q.** `CC(C(N)=O)N(c1ccc2c(c1)OC(F)(F)O2)c1nc(N)c(C(=O)c2ccccc2)s1` (racemic) [Example 197, rac-2-[(4-amino-5-benzoyl-thiazol-2-yl)-(2,2-difluoro-1,3-benzodioxol-5-yl)amino]propanamide] was tested. Which pIC50 did it give?
**A.** 7.05

**Q.** With `CC(Oc1ccc(C(=O)c2sc(N(c3ccccc3)C(C)C(N)=O)nc2N)cc1)C(N)=O` (racemic) [Example 45, 2-(N-[4-amino-5-[4-[2-amino-1-methyl-2-oxo-ethoxy]benzoyl]thiazol-2-yl]anilino)propanamide] as the molecule, how does the pIC50 read?
**A.** 6.47

**Q.** With `COc1ccccc1CNC(=O)COc1ccc(C(=O)c2sc(N(c3ccc(F)cc3)C(C)C(N)=O)nc2N)cc1` (racemic) [Example 94, rac-2-(N-[4-amino-5-[4-[2-[(2-methoxyphenyl)methylamino]-2-oxo-ethoxy]benzoyl]thiazol-2-yl]-4-fluoro-anilino)propanamide] as the molecule, how does the pIC50 read?
**A.** 7.59

**Q.** How did the pIC50 turn out when `CC(C(N)=O)N(c1nc(N)c(C(=O)c2ccccc2)s1)c1ccc(Cl)cc1F` (racemic) [Example 30, rac-2-(N-(4-amino-5-benzoyl-thiazol-2-yl)-4-chloro-2-fluoro-anilino)propanamide] was run?
**A.** 7.24

**Q.** How did the pIC50 turn out when `CC(C(N)=O)N(c1ccc(C(F)(F)F)cc1)c1nc(N)c(C(=O)c2ccc(OC(F)F)cc2)s1` (single isomer, unassigned) [Example 43.2] was run?
**A.** 8.23

**Q.** With `COc1ccc(C(=O)c2sc(N(c3ccc(Cl)cc3)C(C)C(N)=O)nc2N)cc1` (racemic) [Example 58, rac-2-(N-[4-amino-5-(4-methoxybenzoyl)thiazol-2-yl]-4-chloro-anilino)propanamide] as the molecule, how does the pIC50 read?
**A.** 7.78

**Q.** With `Cc1cc(C(=O)c2sc(N(c3ccc(F)cc3)C(C)C(N)=O)nc2N)ccn1` (racemic) [Example 187, rac-2-(N-[4-amino-5-(2-methylpyridine-4-carbonyl)thiazol-2-yl]-4-fluoro-anilino)propanamide] as the molecule, how does the pIC50 read?
**A.** 5.85

**Q.** `CC(C(N)=O)N(c1ccc(F)c(F)c1)c1nc(N)c(C(=O)c2cccnc2)s1` (single isomer, unassigned) [Example 184.1, 2-(N-[4-amino-5-(pyridine-3-carbonyl)thiazol-2-yl]-3,4-difluoro-anilino)propanamide] was tested. Which pIC50 did it give?
**A.** 6.53

**Q.** With `CC(C(N)=O)N(c1ccc(F)c(F)c1)c1nc(N)c(C(=O)c2ccc(NC(=O)OCc3ccccc3)cc2)s1` (single isomer, unassigned) [Example 167.2, Benzyl N-[4-[4-amino-2-(N-(2-amino-1-methyl-2-oxo-ethyl)-3,4-difluoro-anilino)thiazole-5-carbonyl]phenyl]carbamate] as the molecule, how does the pIC50 read?
**A.** 6.52

**Q.** How did the pIC50 turn out when `COc1ccc(C(=O)c2sc(N(c3ccc(OC(F)(F)F)c(Cl)c3)C(C)C(N)=O)nc2N)cc1` (racemic) [Example 222, rac-2-[N-[4-amino-5-(4-methoxybenzoyl)thiazol-2-yl]-3-chloro-4-(trifluoromethoxy)anilino]propanamide] was run?
**A.** 6.97

**Q.** How did the pIC50 turn out when `CC(C(N)=O)N(c1ccc(F)c(Cl)c1)c1nc(N)c(C(=O)c2ccncc2)s1` (single isomer, unassigned) [Example 160.2, 2-(N-[4-amino-5-(pyridine-4-carbonyl)thiazol-2-yl]-3-chloro-4-fluoro-anilino)propanamide] was run?
**A.** 5.07

**Q.** `CC(C(N)=O)N(c1ccc(OC(F)(F)F)cc1)c1nc(N)c(C(=O)c2ccccc2)s1` (racemic) [Example 24, rac-2-[N-(4-amino-5-benzoyl-thiazol-2-yl)-4-(trifluoromethoxy)anilino]propanamide] was tested. Which pIC50 did it give?
**A.** 6.94

**Q.** `COc1ccc(C(=O)c2sc(N(c3ccc(OC(F)(F)F)nc3)C(C)C(N)=O)nc2N)cc1` (racemic) [Example 248, rac-2-[[4-amino-5-(4-methoxybenzoyl)thiazol-2-yl]-[6-(trifluoromethoxy)-3-pyridyl]amino]propanamide] was tested. Which pIC50 did it give?
**A.** 6.87

**Q.** How did the pIC50 turn out when `CCOC(=O)C(C)(C)Oc1ccc(C(=O)c2sc(N(c3ccc(F)cc3)C(C)C(N)=O)nc2N)cc1` (racemic) [Example 259, Rac-Ethyl 2-[4-[4-amino-2-(N-(2-amino-1-methyl-2-oxo-ethyl)-4-fluoro-anilino)thiazole-5-carbonyl]phenoxy]-2-methyl-propanoate] was run?
**A.** 7.72

**Q.** How did the pIC50 turn out when `CC(C(N)=O)N(c1ccc(Cl)cc1)c1nc(N)c(C(=O)c2ccncc2)s1` (racemic) [Example 57, rac-2-(N-[4-amino-5-(pyridine-4-carbonyl)thiazol-2-yl]-4-chloro-anilino)propanamide] was run?
**A.** 6.81

**Q.** `CC(C(N)=O)N(c1ccc(F)cc1)c1nc(N)c(C(=O)c2ccc(OCC(=O)N3CCN(C)CC3)cc2)s1` (racemic) [Example 86, rac-2-(N-[4-amino-5-[4-[2-(4-methylpiperazin-1-yl)-2-oxo-ethoxy]benzoyl]thiazol-2-yl]-4-fluoro-anilino)propanamide] was tested. Which pIC50 did it give?
**A.** 6.12
